Reference: patent US20190388377A1, “COMPOSITIONS AND METHODS FOR THE TREATMENT OF LIVER DISEASES AND DISORDERS” (AXCELLA HEALTH INC., priority 2018, published 2019)

How the values were obtained:
Human CCL2 (MCP-1) = experiment: MCP1 secretion by ELISA after 24 h, PHH model for NASH, Example 2; format: cell-based; conditions: FFA+TNFα
Procedure: (§1) PHH from two healthy human donors (Lonza, TRL) were seeded on day 0 at density of 6e04 cells in 96 well optical microplates (Thermofisher) in hepatocyte plating media (William's E medium, WEM) (Gibco) supplemented with 10% heat-inactivated FBS (Atlanta Bio), 2 mM Glutamax (Gibco), and 0.2% Primocin (InVivoGen) and incubated for 6 hours at 37° C., 5% CO2. After 6 hours, cells were washed twice and incubated overnight at 37° C., 5% CO2 with Hepatocytes defined medium (Corning) supplemented with 2 mM Glutamax (Gibco), and 1× Penicillin/Streptomycin. On day 1, cells were washed twice and incubated for 24 h in the hepatocyte culture media in the same conditions described above.
(§2) On day 2, cells were washed twice with DPBS 1× (Gibco) to remove excess amino acids and maintained in pretreatment media (1×HMDB, a defined custom amino acid concentration based on the mean physiological concentrations in blood, in WEM±supplemental amino acids): • a. Amino acid-free WEM (US Biologicals) supplemented with 11 mM Glucose (Sigma), 0.272 mM Sodium Pyruvate (Sigma), 1× P/S (Gibco) and containing 1×HMDB with no supplemental amino acids; or • b. The same media described above 1×HMDB WEM with supplemental amino acid and amino acid combination treatments at various concentrations. Cells were maintained in the defined media (a. & b.) for 24 hours at 37° C., 5% CO2. The HMDB values are published in the Human Metabolome Database (Wishart D S, Tzur D, Knox C, et al., HMDB: the Human Metabolome Database. Nucleic Acids Res. 2007 January; 35 (Database issue):D521-6. 17202168; which is hereby incorporated by reference in its entirety). Co-Treatment with Free Fatty Acids and Amino Acids Combination
(§3) After 24 h pre-treatment, cells maintained in the pretreatment media±supplemental amino acids (section (a. & b.) described above) were exposed to free fatty acids (FFA) at 250 uM with a ratio of 2:1 (Oleate:Palmitate) supplemented with TNF-α (Thermofisher) at 1 ng/ml. Cells were incubated with the FFAs mixture (FFAs+TNF-α)±supplemental amino acids treatments for 24 hours at 37° C., 5% CO2. After 24 hours incubation, media was removed for cytokine analysis and replaced by fresh media containing the same conditions described above (FFAs mixture±supplemental amino acids treatments). Cells were incubated for an additional 48 hours for a total of 72 hours of FFA and TNF-α stimulation. After 72 hours of incubation, media was removed for albumin and urea analysis and the cells were fixed for nuclei and lipid staining.
Human CCL2 (MCP-1) was measured by ELISA (Human […] DuoSet ELISA, R&D Systems) at 1/20 dilution in 1× Reagent Diluent (Reagent Ancillary Kit 2, R&D Systems). MCP1 data in primary human hepatocytes treated with FFA+TNFα+supplemental amino acids was normalized to 1×HMDB WEM+FFA+TNFα baseline. Data is reported as median fold change from control, statistical analysis was done using t-Test.

[1] = tested on: primary human hepatocytes; experiment: Intracellular lipid accumulation after 72 h by fluorescence microscopy, PHH model for NASH, Example 2; format: cell-based; conditions: FFA+TNFα
Procedure: as §1, §2, §3
After 72 hours, cells were washed twice in 100 ul PBS 1× (Gibco), fixed with 4% Paraformaldehyde, and washed twice with PBS 1× (100 ul). After fixation, lipids were stained with HCS LipidTOX Red Neutral (Thermofisher Scientific) diluted 1000× and nuclei were stained with Hoechst 3342 (Life Technologies) diluted to 4 ug/ml. The LipidTOX™ neutral lipid stain has an extremely high affinity for neutral lipid droplets that was detected by fluorescence microscopy using a high content imager (Molecular Devices). Data was normalized to the cell concentration determined by nuclei count. Images were analyzed and total lipid area was calculated using granularity module in MetaXpress 6 software. Data is reported as median fold change from control, statistical analysis was done using t-Test.

Albumin = Albumin secretion after 72 h by ELISA, PHH model, Example 2; format: cell-based, human; conditions: FFA+TNFα
Procedure: as §1, §2, §3
Albumin secretion was measured as a functionality test in primary human hepatocytes. Albumin was measured by ELISA (Human Albumin ELISA Quantitation set, Bethyl Laboratories) at 1/200 dilution in the sample diluent (Bethyl Laboratories). Data is reported as median fold change from control, statistical analysis was done using t-Test.

Urea = Urea production after 72 h by urea nitrogen (BUN) colorimetric assay, PHH model, Example 2; format: cell-based, human; conditions: FFA+TNFα
Procedure: as §1, §2, §3
Urea was measured as an indicator of hepatocytes functionality by urea nitrogen direct assay (StanBio). Cell supernatant was added to the BUN color reagent and BUN acid reagent at 1(color):2(acid) ratio. Incubate the cell supernatant with BUN reagent for 12 min at 100° C. then for 5 min at 4° C. Read absorbance at 520 nm. Data was normalized to the control. Data is reported as median fold change from control, statistical analysis was done using t-Test.

[2] = tested on: primary human hepatocytes; experiment: Intracellular triglyceride level after 72 h, colorimetric assay, Example 3; format: cell-based; conditions: FFAs+TNFα; two healthy donors
Procedure: On day 2, cells were washed twice with DPBS 1× (Gibco) and maintained in: • a. Amino acid-free WEM (US Biologicals) supplemented with 11 mM Glucose (Sigma), 0.272 mM Sodium Pyruvate (Sigma), 1× P/S (Gibco) and containing a defined custom amino acid concentration based on the mean physiological concentrations in blood (1× HMDB WEM (−) supplemental amino acids); or • b. The same media described above 1×HMDB WEM (+) supplemental amino acids treatment dose at a 30× of HMDB amino acid concentration. Cells were maintained in the defined amino acids media (a. & b.) for 24 hours at 37° C., 5% CO2. Co-Treatment with Free Fatty Acids and Various Amino Acids Supplemental Treatments
After 24 h pre-treatment, cells maintained in the same media (a. & b.) described above 1×HMDB±supplemental amino acids were now exposed to free fatty acids (FFA) at 250 uM with a ratio of 2:1 (Oleate:Palmitate) supplemented with TNF-α (Thermofisher) at 1 ng/ml or vehicle. Cells with the FFAs+TNFα mixture±amino acids treatments were incubated for 72 hours at 37° C., 5% CO2 with a media change after the first 24 hours.
After 72 hours, cells were washed once with cold PBS 1× (Gibco), scrapped off and collected into 75 ul of standard diluent (Cayman). Collected cells were vortexed for 1 min at a 2500 rpm speed followed by two times sonication (Elmasonic sonicator) for 1 min each. Supernatants were collected for triglyceride analysis after centrifugation at 1000 rpm for 10 min at 4° C. Intracellular triglyceride level was assessed using triglyceride colorimetric assay kit (Cayman) and following manufacturer's recommendations. Data was normalized to the total amount of protein using Bicinchoninic Acid Protein Assay Kit (Sigma). Data is reported as median fold change from FFAs+TNFα condition, statistical analysis was done using t-Test.

Procollagen III = Procollagen III secretion by ELISA, TGFβ1-stimulated hepatic stellate cells, Example 4; format: cell-based, human; conditions: HSC, three donors
Procedure: Primary human hepatic stellate cells were obtained from Samsara Sciences. Cells from three different donors were grown in Complete HSC Medium to ˜80% confluence in T75 or T150 flasks below passage 10 were seeded into sterile, collagen I coated, 96-well optical plastic microplates (ThermoScientific) and incubated overnight at 37° C., 5% CO2 in a humidified incubator in DMEM with 2% Fetal Bovine Serum and 1% Antimycotic. […] After 24 hours of stimulus, supernatant was removed and used to measure Procollagen III and cells were then washed and fixed with 4% paraformaldehyde for further staining. Procollagen III, an important biomarker of fibrosis was measured by ELISA (Human PCIII Elisa Kit, G-Biosciences) following the manufacturer's recommendations. Fixed cells with 4% paraformaldehyde were permeabilized with 0.1% Triton X-100 then immunostained for alpha SMA and labeled for EdU incorporation.

[3] = tested on: alpha smooth muscle actin (αSMA); experiment: HSC activation by alpha SMA immunostaining, TGFβ1-stimulated hepatic stellate cells; format: cell-based, human
Procedure: Primary human hepatic stellate cells were obtained from Samsara Sciences. Cells from three different donors were grown in Complete HSC Medium to ˜80% confluence in T75 or T150 flasks below passage 10 were seeded into sterile, collagen I coated, 96-well optical plastic microplates (ThermoScientific) and incubated overnight at 37° C., 5% CO2 in a humidified incubator in DMEM with 2% Fetal Bovine Serum and 1% Antimycotic. […] After 24 hours of stimulus, supernatant was removed and used to measure Procollagen III and cells were then washed and fixed with 4% paraformaldehyde for further staining.
Procollagen III, an important biomarker of fibrosis was measured by ELISA (Human PCIII Elisa Kit, G-Biosciences) following the manufacturer's recommendations. Fixed cells with 4% paraformaldehyde were permeabilized with 0.1% Triton X-100 then immunostained for alpha SMA and labeled for EdU incorporation.
Cells were imaged using ImageXpress micro confocal high content imager (Molecular Devices). […] Image analysis was performed using MetaXpress version 6.2.3.733 (Molecular Devices).
Fixed cells immunostained for alpha smooth muscle actin (αSMA) were analyzed and stained area was normalized to total nuclei count. Fold change were calculated relative to the baseline amino acid (1×HMDB) condition stimulated with 3 ng/mL TGFβ1.

C[N+](C)(C)C[C@H](O)CC(=O)[O-] [Car, L-carnitine]
MCP1 secretion (in words) (Human CCL2 (MCP-1); hepatocyte donor 1): did not reduce MCP1 secretion | MCP1 secretion (in words) (Human CCL2 (MCP-1); hepatocyte donor 2): did not affect MCP1 secretion | lipid accumulation (in words) ([1]; hepatocyte donor 1): reduced lipid accumulation | lipid accumulation (in words) ([1]; hepatocyte donor 2): reduced lipid accumulation but less than the previously described combinations | albumin secretion (in words) (Albumin; hepatocyte donor 1): did not reduce albumin secretion | albumin secretion (in words) (Albumin; hepatocyte donor 2): reduced albumin secretion | urea production (in words) (Urea; hepatocyte donor 1): No changes in urea production | urea production (in words) (Urea; hepatocyte donor 2): slightly reduced urea production | triglyceride level (in words) [2]: reduces triglyceride level but the effect was less pronounced than the combinations described previously | procollagen III secretion (in words) (Procollagen III): had no impact on procollagen III secretion | alpha SMA stained area (in words) [3]: reduced the alpha SMA stained area
